The numbers were not newly measured in patent US20220265733A1, “COMPOSITIONS COMPRISING BACTERIAL STRAINS” (4D Pharma Research Limited, priority 2019, published 2022), which cites them from elsewhere.

One data set concerns DSS-colitis murine model. The conditions noted are these: reference [70].
A further data set relates to class I HDAC. The conditions noted are these: reference [70].

With `CCCC(CCC)C(=O)O` [valproic acid], the colitis entry with DSS-colitis murine model is listed as “amelioration”. The HDAC inhibition result in the data set on class I HDAC is “associated with class I HDAC inhibition”.
